Results: patent US10253012B2, “Method and apparatus for preparation of lactide using lactide purification process” (priority 2015, dated 2019)

Experiment: Solubility of lactide in different solvents
Format: physicochemical

- solubility of lactide in ethanol (ethanol as first solvent, temperature maintained at 20 °C): ≤ 10 wt %
- solubility of lactide in γ-butyrolactone (in words) (solvent γ-butyrolactone, no solid crystal formed in condenser at 5 °C): high solubility
Structure (SMILES): CC1OC(=O)C(C)OC1=O (centres unmarked) [lactide]
